Measurements as given in US6583127B1, “Use of etherlysophospholipids as antiinflammatory agents” (Inkeysa. SA, priority 1998, dated 2003).
Like-named read-outs stand apart in the source and are kept apart here.

Columns and labels:
[1] = test system: CD43; assay: Cell surface expression of CD43 in human neutrophils (immunofluorescence flow cytometry); format: cell-based; conditions: Medium = 100
Source text: (§1) Isolation and treatment of neutrophils.
(§2) Monoclonal antibodies. […] The antibodies are commercially available.
(§3) Immunofluorescence flow cytometry. […] Results were expressed as relative MFI (rMFI), such that
(§4) rMFI=(MFIagent×100)/MFImedium
(§5) Background fluorescence was substracted from all values.

[2] = test system: L-selectin (CD62L); assay: Cell surface expression of L-selectin in human neutrophils (immunofluorescence flow cytometry); format: cell-based; conditions: for L-Selectin cell surface expression (rMFI): Medium = 100
Source text: as §1, §2, §3, §4, §5

[3] = test system: HLA; conditions: human neutrophils, Medium = 100
Protocol: Isolation and treatment of neutrophils. Human neutrophils were obtained from fresh peripheral blood by dextran sedimentation and centrifugation on Ficoll-Hypaque followed by hypotonic lysis of residual erythrocytes. […] Cells were resuspended at 3×10^6 neutrophils/ml in HEPES/glucose buffer (150 mM NaCl, 5 mM KCl, 10 mM HEPES, 1.2 mM MgCl2, 1.3 mM CaCl2, 5.5 mM glucose, pH 7.5), and incubated in the absence or presence of distinct agents at 37° C. for the times indicated in the respective legends to figures. Subsequently, cells were pelleted by centrifugation and saved to determine the content of different cell surface antigens by flow cytometry.
Monoclonal antibodies. The following monoclonal antibodies were used: TS1/11 anti-CD11a, Bear-1 anti-CD11b, TP1/36.1 anti-CD43, HP2/9 anti-CD44, Leu-8 anti-L-selectin, and W6/32, specific for a monomorphic determinant on HLA-A, B molecules. P3X63 myeloma culture supernatant was used as a negative control. The antibodies are commercially available.
Immunofluorescence flow cytometry. Immunofluorescence flow cytometry analysis was performed in a FACStar-Plus and a FACScan flow cytometers (Becton-Dickinson). Neutrophils were incubated at 4° C. with the corresponding monoclonal antibody followed by washing and labelling with a fluorescein isothiocyanate (FITC)-labelled-goat anti-mouse IgG antibody (DAKO, Glostrup, Denmark). Mean fluorescence intensity (MFI) in linear scale was obtained from at least 7000 cells in each sample, and the fluorescence produced by the myeloma P3X63 supernatant was considered as background. Results were expressed as relative MFI (rMFI), such that
as §4, §5

[4] = test system: CD11a; assay: Cell surface expression of CD11a in human neutrophils (immunofluorescence flow cytometry); format: cell-based; conditions: Medium = 100
Source text: as §1, §2, §3, §4, §5

[5] = test system: phospholipase A2 (PLA2); assay: [3H]arachidonic acid release as assay for PLA2 activity; format: cell-based; conditions: FIG. 10
Protocol: Measurement of arachidonic acid release. Arachidonic acid release was measured as an assay for phospholipase A2 (PLA2) activity, because this enzyme activity constitutes the major pathway controlling arachidonic acid release. Cells (5×10^5/ml) were labeled overnight with 0.1 μCi of [^3H]arachidonic acid/ml in RPMI-1640 culture medium containing 10% fetal calf serum. Then cells were washed four times with culture medium, and cells were resuspended in […] culture medium in the absence of serum in the absence (control) or in the presence of distinct agents for the times indicated in the respective figures. After this period, cells were pelleted by centrifugation and supernatants were transferred to scintillation vials and counted for radioactivity. Results are shown as cpm of labelled arachidonic acid released to the extracellular medium.

[6] = Body weight evaluation in the TNB colitis rat model; format: in vivo; conditions: Wistar rat, Mean ± SEM
Protocol: The therapeutic potential for the treatment of ulcerative colitis of IEC01 at 2.5 and 5 mg/kg and IES01 at 2.5 mg/kg, was evaluated after their administration by oral route during 14 days (7 days of preventive treatment and 7 days of therapeutic treatment) using the rat model of experimental colitis induced by TNB (2,4,6-trinitrobenzenesulphonic acid). As reference parameters, the body weight, wet colon weight and score macroscopic evaluation were evaluated after 24 hours and after 7 days of the intraluminal administration of TNB in the colon.

For `CCCCCCCCCCCCCCCCCCOCC(COP(=O)([O-])OCC[N+](C)(C)C)OC` (centres unmarked) [IEC01, Edelfosine], the “CD43 cell surface expression (rMFI)” value ([1]; 10 ng/ml) was 87.5 ± 2.5, the “CD43 cell surface expression (rMFI)” value ([1]; 100 ng/ml) was 63 ± 8 and the “CD43 cell surface expression (rMFI)” value ([1]; 500 ng/ml) was 53 ± 5. For the same molecule, the “CD43 cell surface expression (rMFI)” value ([1]; 1 μg/ml) was 33 ± 8, the “CD43 cell surface expression (rMFI)” value ([1]; 5 μg/ml) was 28 ± 7 and the “times more effective than aceclofenac in promoting L-selectin down-regulation” value ([2]; after correcting for the different molecular weights) was 100 times. For the same molecule, the IC50 ([2]; converted from μg/ml values, read-out: IC50 for L-selectin down-regulation, corrected for molecular weight) was 194 nM, the “concentration at which L-selectin reduction reaches a maximum” value ([2]; human neutrophils) was 1 µg/mL and the “IC50 for L-selectin down-regulation” value ([2]; human neutrophils (FIG. 1)) was “about 0.1 μg/ml”. The “time for decrease in cell surface L-selectin content to reach a maximum” value ([2]; human neutrophils (data not shown)) was ≤ 5 min, the “L-Selectin cell surface expression (rMFI)” value ([2]; human neutrophils, 10 ng/ml) was 83.5 ± 4 and the “L-Selectin cell surface expression (rMFI)” value ([2]; human neutrophils, 100 ng/ml) was 56 ± 6. The “L-Selectin cell surface expression (rMFI)” value ([2]; human neutrophils, 500 ng/ml) was 35 ± 5.5, the “L-Selectin cell surface expression (rMFI)” value ([2]; human neutrophils, 1 μg/ml) was 18 ± 6 and the “L-Selectin cell surface expression (rMFI)” value ([2]; human neutrophils, 5 μg/ml) was 22 ± 8. For the same molecule, the “HLA cell surface expression (rMFI)” value ([3]; 10 ng/ml) was 101 ± 5, the “HLA cell surface expression (rMFI)” value ([3]; 100 ng/ml) was 100 ± 4 and the “HLA cell surface expression (rMFI)” value ([3]; 500 ng/ml) was 99 ± 5. The “HLA cell surface expression (rMFI)” value ([3]; 1 μg/ml) was 102 ± 6, the “HLA cell surface expression (rMFI)” value ([3]; 5 μg/ml) was 101 ± 5 and the “CD11a cell surface expression (rMFI)” value ([4]; 10 ng/ml) was 99 ± 3. The “CD11a cell surface expression (rMFI)” value ([4]; 100 ng/ml) was 102 ± 5, the “CD11a cell surface expression (rMFI)” value ([4]; 500 ng/ml) was 97 ± 8 and the “CD11a cell surface expression (rMFI)” value ([4]; 1 μg/ml) was 101 ± 6. For the same molecule, the “CD11a cell surface expression (rMFI)” value ([4]; 5 μg/ml) was 96 ± 5, the “PLA2 activity, as measured by [3H]arachidonic acid release” value [5] was “able to stimulate” and the “Body weight DAY 1” value ([6]; 2.5 mg/Kg p.o.) was 233.5 ± 3.07 g. For the same molecule, the “Body weight DAY 2” value ([6]; 2.5 mg/Kg p.o.) was 236.0 ± 3.42 g, the “Body weight DAY 4” value ([6]; 2.5 mg/Kg p.o.) was 240.3 ± 3.60 g and the “Body weight DAY 7” value ([6]; 2.5 mg/Kg p.o.) was 210.6 ± 3.05 g. The “Body weight DAY 8” value ([6]; 2.5 mg/Kg p.o.) was 214.8 ± 3.41 g, the “Body weight DAY 11” value ([6]; 2.5 mg/Kg p.o.) was 234.4 ± 4.53 g and the “Body weight DAY 12” value ([6]; 2.5 mg/Kg p.o.) was 241.0 ± 4.04 g. For the same molecule, the “Body weight DAY 13” value ([6]; 2.5 mg/Kg p.o.) was 244.2 ± 4.16 g, the “Body weight DAY 14” value ([6]; 2.5 mg/Kg p.o.) was 249.4 ± 4.42 g and the “Body weight DAY 1” value ([6]; 5.0 mg/Kg p.o) was 227.4 ± 1.21 g. The “Body weight DAY 2” value ([6]; 5.0 mg/Kg p.o) was 229.1 ± 1.05 g, the “Body weight DAY 4” value ([6]; 5.0 mg/Kg p.o) was 235.9 ± 1.63 g and the “Body weight DAY 7” value ([6]; 5.0 mg/Kg p.o) was 207.4 ± 1.90 g. The “Body weight DAY 8” value ([6]; 5.0 mg/Kg p.o) was 216.2 ± 2.56 g, the “Body weight DAY 11” value ([6]; 5.0 mg/Kg p.o) was 237.6 ± 3.35 g and the “Body weight DAY 12” value ([6]; 5.0 mg/Kg p.o) was 245.2 ± 3.17 g. For the same molecule, the “Body weight DAY 13” value ([6]; 5.0 mg/Kg p.o) was 250.6 ± 3.31 g and the “Body weight DAY 14” value ([6]; 5.0 mg/Kg p.o) was 253.6 ± 5.34 g.
